How the values were obtained:
Assay type in all cases: in vivo
[1] = system: transplanted rice plant; experiment: Test Example 1: effect on crop, application before weed generation in submerged conditions (symbol a); details: application herbicide amount 320 g/ha
Outline: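 Alluvial soil pots flooded to 4 cm water, sown with Echinochloa oryzacola, Scirpus juncoides and Monochoria vaginalis, then transplanted with 2.5 leaf stage rice seedlings; pre-emergence application. Greenhouse 25° C. to 30° C.; scored 0–5 by herbicidal ratio 3 weeks after application.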

[2] = system: Scirpus juncoides; experiment: Test Example 2: herbicidal activity, application during weed generation in submerged conditions (symbol B); details: Table 23; application herbicide amount 320 g/ha; grade 0-5 by criteria of Test Example 1
Outline: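 Scoring of herbicidal effect took place 3 weeks after treatment, using the criteria of the earlier test. Treatment was water-surface application of diluted emulsifiable compound at a set dose. Plants were at one- to two-leaf stage in submerged alluvial soil (4 cm depth), greenhouse 25-30° C.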

[3] = system: Leptochloa chinensis; experiment: Test Example 3: herbicidal effect by foliage application, Wagner pot (symbol D); details: application herbicide amount 320 g/ha
Outline: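 Foliar spray of a water-diluted emulsion at a predetermined herbicide amount, applied to 14-day-old plants. Seedlings were raised in flooded alluvial soil (0.1–0.5 cm water) at 25–30 °C in a greenhouse. Injury was rated after 3 weeks against fixed criteria.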

[4] = system: Avena fatua; experiment: Test Example 4: herbicidal effect by soil treatment (symbol I); details: 320 g/ha
Outline: (§1)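 Seeds were sown in sterilized diluvial soil, covered with about 1.5 cm of soil, and the soil surface was sprayed with a water-diluted emulsion of the compound at a predetermined rate. Plants grew in a greenhouse at 25° C. to 30° C.; effects were scored visually 3 weeks after application.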

[5] = system: Alopecurus myosuroides; experiment: Test Example 4: herbicidal effect by soil treatment (symbol J); details: 320 g/ha
Outline: as §1

[6] = system: Veronica persica; experiment: Test Example 4: herbicidal effect by soil treatment (symbol R); details: 320 g/ha
Outline: as §1

[7] = system: wheat; experiment: Test Example 4: effect on crop by soil treatment (symbol e); details: 320 g/ha
Outline: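 Seeds were sown in spots on sterilized diluvial soil in a plastic box and covered with about 1.5 cm of soil. Plants were then grown in a greenhouse at 25° C. to 30° C.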

[8] = system: Digitaria ciliaris; experiment: Test Example 5: herbicidal effect by foliage application, plastic box (symbol F); details: 320 g/ha, 3 weeks after application
Outline: (§2)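 Visual herbicidal score, taken three weeks post-application, of seedlings sprayed on the foliage with water-diluted emulsion at a predetermined amount; plants were 14 days old, greenhouse-raised at 25° C. to 30° C.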

[9] = system: Alopecurus myosuroides; experiment: Test Example 5: herbicidal effect by foliage application, plastic box (symbol J); details: 320 g/ha, 3 weeks after application
Outline: as §2

[10] = system: Lolium multiflorum Lam.; experiment: Test Example 5: herbicidal effect by foliage application, plastic box (symbol K); details: 320 g/ha, 3 weeks after application
Outline: as §2

[11] = system: Galium spurium; experiment: Test Example 5: herbicidal effect by foliage application, plastic box (symbol Q); details: 320 g/ha, 3 weeks after application
Outline: as §2

[12] = system: corn; experiment: Test Example 5: effect on crop by foliage application, plastic box (symbol c); details: 320 g/ha, 3 weeks after application
Outline: (§3)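 Greenhouse test at 25° C. to 30° C. Seeds of crops and weeds were spot-sown in boxes of sterilized diluvial soil under roughly 1.5 cm soil cover, then grown for foliage treatment.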

[13] = system: soybean; experiment: Test Example 5: effect on crop by foliage application, plastic box (symbol d); details: 320 g/ha, 3 weeks after application
Outline: as §3

[14] = system: wheat; experiment: Test Example 5: effect on crop by foliage application, plastic box (symbol e); details: 320 g/ha, 3 weeks after application
Outline: as §3

Structure (SMILES)	Effect grade on crop, a: transplanted rice plant [1]	Herbicidal effect grade, B: Scirpus juncoides [2]	herbicidal effect on D (Leptochloa chinensis), grade 0-5 [3]	I: Avena fatua, herbicidal effect grade [4]	J: Alopecurus myosuroides, herbicidal effect grade [5]	R: Veronica persica, herbicidal effect grade [6]	e: wheat, effect grade on crop [7]	F: Digitaria ciliaris, herbicidal effect (criteria 0-5) [8]	J: Alopecurus myosuroides, herbicidal effect (criteria 0-5) [9]	K: Lolium multiflorum Lam., herbicidal effect (criteria 0-5) [10]	Q: Galium spurium, herbicidal effect (criteria 0-5) [11]	c: corn, effect on crop (criteria 0-5) [12]	d: soybean, effect on crop (criteria 0-5) [13]	e: wheat, effect on crop (criteria 0-5) [14]
CON=C(C)CC1CC(OC(=O)C(CSC)=NOC)=C(c2c(C)cc(C)cc2C)C1=O (stereo not drawn) [1-098]	5 (Herbicidal ratio of 90% or more (almost completely withered))	4 (Herbicidal ratio of 70% or higher and lower than 90%)	5 (Herbicidal ratio of 90% or more (almost completely withered))	2 (Herbicidal ratio of 20% or higher and lower than 40%)	5 (Herbicidal ratio of 90% or more (almost completely withered))	0 (Herbicidal ratio of 5% or lower (almost no effect))	3 (Herbicidal ratio of 40% or higher and lower than 70%)	5 (Herbicidal ratio of 90% or more (almost completely withered))	5 (Herbicidal ratio of 90% or more (almost completely withered))	5 (Herbicidal ratio of 90% or more (almost completely withered))	0 (Herbicidal ratio of 5% or lower (almost no effect))	5 (Herbicidal ratio of 90% or more (almost completely withered))	3 (Herbicidal ratio of 40% or higher and lower than 70%)	5 (Herbicidal ratio of 90% or more (almost completely withered))
CON=C(C)CC1CC(OC(=O)c2nsc(Cl)c2Cl)=C(c2c(C)cc(C)cc2C)C1=O (stereo not drawn) [1-099]	5 (Herbicidal ratio of 90% or more (almost completely withered))	4 (Herbicidal ratio of 70% or higher and lower than 90%)	5 (Herbicidal ratio of 90% or more (almost completely withered))	2 (Herbicidal ratio of 20% or higher and lower than 40%)	5 (Herbicidal ratio of 90% or more (almost completely withered))	0 (Herbicidal ratio of 5% or lower (almost no effect))	3 (Herbicidal ratio of 40% or higher and lower than 70%)	5 (Herbicidal ratio of 90% or more (almost completely withered))	5 (Herbicidal ratio of 90% or more (almost completely withered))	5 (Herbicidal ratio of 90% or more (almost completely withered))	3 (Herbicidal ratio of 40% or higher and lower than 70%)	5 (Herbicidal ratio of 90% or more (almost completely withered))	4 (Herbicidal ratio of 70% or higher and lower than 90%)	5 (Herbicidal ratio of 90% or more (almost completely withered))
CON=C(C)CC1CC(OC(=O)c2nc(C)sc2C)=C(c2c(C)cc(C)cc2C)C1=O (stereo not drawn) [1-101]	5 (Herbicidal ratio of 90% or more (almost completely withered))	5 (Herbicidal ratio of 90% or more (almost completely withered))	5 (Herbicidal ratio of 90% or more (almost completely withered))	3 (Herbicidal ratio of 40% or higher and lower than 70%)	5 (Herbicidal ratio of 90% or more (almost completely withered))	0 (Herbicidal ratio of 5% or lower (almost no effect))	3 (Herbicidal ratio of 40% or higher and lower than 70%)	5 (Herbicidal ratio of 90% or more (almost completely withered))	5 (Herbicidal ratio of 90% or more (almost completely withered))	5 (Herbicidal ratio of 90% or more (almost completely withered))	0 (Herbicidal ratio of 5% or lower (almost no effect))	5 (Herbicidal ratio of 90% or more (almost completely withered))	3 (Herbicidal ratio of 40% or higher and lower than 70%)	5 (Herbicidal ratio of 90% or more (almost completely withered))
CC(CC1CC(O)=C(c2c(C)cc(C)cc2C)C1=O)=NOCC#N (stereo not drawn) [1-102]	5 (Herbicidal ratio of 90% or more (almost completely withered))	2 (Herbicidal ratio of 20% or higher and lower than 40%)	5 (Herbicidal ratio of 90% or more (almost completely withered))	0 (Herbicidal ratio of 5% or lower (almost no effect))	5 (Herbicidal ratio of 90% or more (almost completely withered))	0 (Herbicidal ratio of 5% or lower (almost no effect))	0 (Herbicidal ratio of 5% or lower (almost no effect))	5 (Herbicidal ratio of 90% or more (almost completely withered))	5 (Herbicidal ratio of 90% or more (almost completely withered))	5 (Herbicidal ratio of 90% or more (almost completely withered))	0 (Herbicidal ratio of 5% or lower (almost no effect))	5 (Herbicidal ratio of 90% or more (almost completely withered))	0 (Herbicidal ratio of 5% or lower (almost no effect))	4 (Herbicidal ratio of 70% or higher and lower than 90%)
CON=C(C)CON=C(C)CC1CC(O)=C(c2c(C)cc(C)cc2C)C1=O (stereo not drawn) [1-105]	5 (Herbicidal ratio of 90% or more (almost completely withered))	5 (Herbicidal ratio of 90% or more (almost completely withered))	5 (Herbicidal ratio of 90% or more (almost completely withered))	1 (Herbicidal ratio of 5% or higher and lower than 20%)	5 (Herbicidal ratio of 90% or more (almost completely withered))	0 (Herbicidal ratio of 5% or lower (almost no effect))	3 (Herbicidal ratio of 40% or higher and lower than 70%)	5 (Herbicidal ratio of 90% or more (almost completely withered))	5 (Herbicidal ratio of 90% or more (almost completely withered))	5 (Herbicidal ratio of 90% or more (almost completely withered))	2 (Herbicidal ratio of 20% or higher and lower than 40%)	4 (Herbicidal ratio of 70% or higher and lower than 90%)	1 (Herbicidal ratio of 5% or higher and lower than 20%)	5 (Herbicidal ratio of 90% or more (almost completely withered))
CC(CC1CC(O)=C(c2c(C)cc(C)cc2C)C1=O)=NOC1CCCC1 (stereo not drawn) [1-106]	5 (Herbicidal ratio of 90% or more (almost completely withered))	0 (Herbicidal ratio of 5% or lower (almost no effect))	5 (Herbicidal ratio of 90% or more (almost completely withered))	3 (Herbicidal ratio of 40% or higher and lower than 70%)	5 (Herbicidal ratio of 90% or more (almost completely withered))	0 (Herbicidal ratio of 5% or lower (almost no effect))	3 (Herbicidal ratio of 40% or higher and lower than 70%)	5 (Herbicidal ratio of 90% or more (almost completely withered))	5 (Herbicidal ratio of 90% or more (almost completely withered))	5 (Herbicidal ratio of 90% or more (almost completely withered))	0 (Herbicidal ratio of 5% or lower (almost no effect))	5 (Herbicidal ratio of 90% or more (almost completely withered))	0 (Herbicidal ratio of 5% or lower (almost no effect))	4 (Herbicidal ratio of 70% or higher and lower than 90%)

— patent US11000033B2, “Ketone or oxime compound, and herbicide” (NISSAN CHEMICAL CORPORATION, priority 2014, dated 2021)
